For one compound, Km results are on record in publication PMC10781878, “AMWEst, a new thermostable and detergent-tolerant esterase retrieved from the Albian aquifer” (Applied Microbiology and Biotechnology, 2024).

For the assay, the system named is T1, AMWEst.
T1 construct: primer keeps native start codon (predicted signal peptide 1-22, LHA-EQ); ultrafiltered extracellular medium, not purified; about 50 kDa on SDS-PAGE, probably N-glycosylated
Description: spectrophotometric p-nitrophenol release at […] nm, Lineweaver-Burk plot. The class given is biochemical, uncultured bacterium. The note with it: 50 mM Tris/HCl pH 8.5, 40 mM CaCl2, 60 °C, 20 min; substrate 0.1-10 mM; concentrated extracellular medium of recombinant yeast.

What is called Km is the concentration of substrate that gives half-maximal velocity.

On to `CCCCCCCCCCCC(=O)Oc1ccc([N+](=O)[O-])cc1` [pNP12, p-nitrophenyl laurate], for which the Km was determined as 1020 µM.
